Experimental data published in US9121040B2, “Process for rapid anaerobic digestion of biomass using microbes and the production of biofuels therefrom” (priority 2006, dated 2015).
Like-named read-outs stand apart in the source and are kept apart here. Marks after values point to notes of the source that are not given here.

Test system: ruminal microorganisms
Assay: Effect of sulfur reducing agents on gas, volatile fatty acid and alcohol production, timothy hay with ruminal microorganisms (Example 7)
Assay type: cell-based, mixed rumen microorganisms from cows
Conditions: for H2 (% of all gases): 0.32 mmol/flask agent, timothy hay, mean of initial gas CO2 or N2 without added H2; for H2 (% of fermentation gas): molar percentage among gases excluding N2; for NDF remaining (% of DM): neutral detergent fiber after 24 h
Method: Initial in vitro experiments used timothy grass hay as substrate. For each digestion experiment, we obtained one-half liter of rumen contents from each of two ruminally-cannulated cows two to four hours after morning feeding. The digesta were mixed and ground in a Waring blender for 1 minute while being maintained under CO2 gas. Fluid was strained through four layers of cheese cloth followed by glass wool to remove large particles. Rumen fluid was added to a bicarbonate or 0.1 M sodium phosphate buffer with mineral salts.
Gas samples were collected continuously in mylar balloons, and gas volumes recorded at various time points. Glass tubing coated with epoxy was pushed into the opening on the mylar balloons. The tubing was connected to luer-lock connectors via nylon tubing. Samples were taken using glass syringes attached to the luer-lock connectors. Samples were stored in gas-tight vials for analysis of composition by GC with thermal conductivity detector. Rates of gas production were determined by fitting an inverted exponential equation.
The pH and reducing potential were determined using standard glass or platinum electrodes respectively, while maintaining the gas composition by keeping the flasks closed to the atmosphere with putty fitted around the electrodes. Liquid samples were collected at designated time points and analyzed by gas chromatography (GC) for alcohols (methanol, ethanol, propanol, butanol) volatile fatty acids (acetate, propionate, butyrate, etc). Rates of alcohol or VFA production were determined by fitting an inverted exponential equation.
True fiber digestibility was determined directly on the residue of digestion by refluxing in pH-neutral detergent solution for one hour, drying at 100° C. overnight and weighing.
An experiment was conducted to determine the effect of adding sulfur reducing agents on production of gases, volatile fatty acids, and alcohols. Twenty treatments were arranged in a 2×2×5 factorial design with factors of initial headspace gas (CO2 or N2), addition of 25 ml H2 gas to the initial headspace (+H2, —H2), or one of five sources of sulfur redox agents (0.32 mmol/flask): Na2SO4, Na2SO3, S^0, Na2S, or none. Samples (0.5 g timothy hay) were incubated for 24 hours and products measured as previously. At the start of the incubation, each 125-ml flask was perfused with respective gas. For treatments receiving added H2, 25 ml of perfused gas (at 1 atm pressure) was removed from the flask headspace and forced into the collection balloon. This removed gas was replaced with H2.

[1] = 24 h, mean of CO2 or N2 without added H2
[2] = mean of CO2 or N2 without added H2

SMILES	H2 (% of all gases) (24 h)	1-propanol [1]	2Acet + 2Butyr − Propionate (estimated production of H2 equivalent from fermentation of sugar to VFA) [1]	Acetate [1]	Acetate:Butyrate, mole ratio [1]	Acetate:Propion, mole ratio [1]	Butyrate [1]	CH4 (% of all gases) [1]	CH4 (% of fermentation gas) [1]	CH4:CO2 (molar ratio) [1]	CH4:H2 (molar conc. ratio) [1]	CH4 production [1]	CO2 (% of all gases) [1]	CO2 (% of fermentation gas) [1]	CO2 production [1]	Ethanol [1]	H2 equivalent (H2 + 4 CH4) [1]	H2 production [1]	Isobutyrate [1]	Isovalerate [1]	further results
O=S(=O)([O-])[O-].[Na+].[Na+] [SO4, Na2SO4]	0.073^b %	0 µmol	2628^a μmol	538^a μmol	7.00^a	2.57	198^a μmol	5.02^a %	14.4^a %	0.182^a	85^a	363^a μmol	52.1^a %	85.4^b %	2298^ab μmol	0 µmol	1459^a	5.0^b μmol	12.0^a μmol	13.0^ab μmol	Eh: −247^ab; Propionate [1]: 538^a μmol; Total VFA [1]: 2162^a μmol; VFA-C [1]: 5370^a μmol; pH [1]: 6.45^b; valerate [1]: 16.7^b μmol; H2 (% of fermentation gas) [1]: 0.24^b %; NDF remaining (% of DM) [2]: 36.0^b % of DM
[Na+].[Na+].[S-2] [Na2S]	0.078^b %	0 µmol	2660^a μmol	541^a μmol	6.91^a	2.59	202^a μmol	5.04^a %	14.3^a %	0.183^a	69^a	335^a μmol	42.9^b %	85.5^b %	1773^ab μmol	0 µmol	1344^a	5.2^b μmol	13.5^a μmol	14.7^a μmol	Eh [1]: −269^c; Propionate [1]: 541^a μmol; Total VFA [1]: 2190^a μmol; VFA-C [1]: 5455^a μmol; pH [1]: 6.47^b; valerate [1]: 19.5^a μmol; H2 (% of fermentation gas) [1]: 0.24^b %; NDF remaining (% of DM) [2]: 35.7^b % of DM
[S] [S^0]	0.080^b %	0 µmol	2840^a μmol	550^a μmol	7.57^a	2.72	198^a μmol	4.61^a %	13.8^a %	0.171^a	79^a	334^a μmol	50.5^a %	86.0^b %	1795^ab μmol	0 µmol	1340^a	5.9^b μmol	12.2^a μmol	13.3^ab μmol	Eh: −249^abc; Propionate [1]: 550^a μmol; Total VFA [1]: 2287^a μmol; VFA-C [1]: 5634^a μmol; pH [1]: 6.43^b; valerate [1]: 17.1^b μmol; H2 (% of fermentation gas) [1]: 0.22^b %; NDF remaining (% of DM) [2]: 36.5^b % of DM
O=S([O-])[O-].[Na+].[Na+] [SO3, Na2SO3]	1.39^a %	5.4^6 μmol	1483^b μmol	293^b μmol	4.89^b	2.52	152^b μmol	0.12^b %	0.82^b %	0.010^b	0.1^b	6.6^b μmol	47.9^ab %	92.0^a %	1002^b μmol	25.8^5 μmol	103^b	76.6^a μmol	9.8^b μmol	12.3^b μmol	Eh: −264^bc; Propionate [1]: 293^b μmol; Total VFA [1]: 1206^b μmol; VFA-C [1]: 3071^b μmol; pH [1]: 6.72^a; valerate [1]: 2.33^c μmol; Methane production (H2 added at the beginning): ≤ 5 µmol; effect on methane production (each gas composition): strongly inhibited; H2 (% of fermentation gas) [1]: 8.18^a %; NDF remaining (% of DM) [2]: 57.2^a % of DM; valerate (starting with CO2, H2 added): 2.3 µmol; valerate (starting with CO2, H2 not added): 3.0 µmol; valerate (starting with N2, H2 added): 8.3 µmol; valerate (starting with N2, H2 not added): 1.7 µmol; hydrogen production (when H2 was added to initial headspace): -179 µmol
